Assay [1] relates to A1 adenosine receptor (DDT1 cells). The assay is described as follows: cAMP assay (SPA) in DDT1 cells with forskolin. The conditions noted are these: 5 μM forskolin; for cAMP: rolipram 50 μM, normalized to the full agonist CPA. Format: cell-based, hamster. As to the method:
(§1) DDT cells (hamster vas deferens smooth muscle cell line) were grown as monolayers in petri dishes using Dulbecco's Modified Eagle's Medium (DMEM) containing 2.5 μg ml^−1 amphotericin B, 100 U ml^−1 penicillin G, 0.1 mg ml^−1 streptomycin sulfate and 5% fetal bovine serum in a humidified atmosphere of 95% air and 5% CO2. Cells were subcultured twice weekly by dispersion in Hank's Balanced Salt Solution (HBSS) without the divalent cations and containing 1 mM EDTA. The cells were then seeded in growth medium at a density of […] per plate and experiments were performed 4 days later at approximately one day preconfluence.
A scintillation proximity assay (SPA) using rabbit antibodies directed at cAMP using an added tracer of adenosine 3′,5′-cyclic phosphoric acid 2′-O-succinyl-3-[^125I] iodotyrosine methyl ester and fluoromicrospheres containing anti-rabbit specific antibodies as described by Amersham Pharmacia Biotech (Biotrak cellular communication assays). Briefly, DDT1 cells were cultured in clear bottomed 96 well microtiter plates with opaque wells at concentrations between 10^4 to 10^6 cells per well in 40 μl of HBSS at 37° C. (5% CO2 and 95% humidity). The partial or full A1 agonists (5 μl )of this invention were incubated at various concentrations with the DDT1 cells in the presence of rolipram (50 μM), and 5 μM forskolin for 10 min at 37° C. The cells were immediately lysed by treatment 5 μl of 10% dodecyltrimethylammonium bromide followed by shaking using microplate shaker. After incubation of the plate for 5 minutes, an immunoreagent solution (150 μl containing equal volumes of tracer, antiserum, and SPA fluorospheres) was added to each well followed by sealing the plate. After 15-20 h at 23° C., the amount of bound [^125I] cAMP to the fluoromicrospheres was determined by counting in a microtitre plate scintillation counter for 2 minutes. Comparison of counts with standard curves generated for cAMP using a similar protocol afforded the cAMP present after cell lysis.

The target of a further assay is T1, A1 receptor (Sus scrofa, UniProt I3LEN5).
T1 sequence (I3LEN5 1-326): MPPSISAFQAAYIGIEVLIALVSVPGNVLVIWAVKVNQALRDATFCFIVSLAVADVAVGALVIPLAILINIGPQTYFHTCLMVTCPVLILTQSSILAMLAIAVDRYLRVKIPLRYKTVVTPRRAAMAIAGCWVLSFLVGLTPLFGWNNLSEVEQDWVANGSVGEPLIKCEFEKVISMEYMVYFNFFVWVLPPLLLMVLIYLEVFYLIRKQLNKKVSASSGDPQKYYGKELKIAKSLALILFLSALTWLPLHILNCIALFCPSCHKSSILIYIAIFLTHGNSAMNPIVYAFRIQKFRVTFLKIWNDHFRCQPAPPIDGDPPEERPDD
The assay is described as follows: Competitive binding assay, pig striatum membranes, [3H]CPX. As to conditions: pig striatum membrane prep, antagonist [3H]CPX 2 nM. As to the method:
Pig striatum were prepared by homogenation in 50 mM Tris buffer ( 5x volume of tissue mass pH=7.4). After centrifugation at 19,000 rpm for 25 minutes at 4° C., the supernatant was discarded, and the process was repeated twice. Compositions of this invention were assayed to determine their affinity for the A1 receptor in a pig striatum membrane prep or a DDT1 membrane prep. Briefly, 0.2 mg of pig striatal membranes or DDT1 cell membranes were treated with adenosine deaminase and 50 mM Tris buffer (pH=7.4) followed by mixing. To the pig membranes was added 2 μL of serially diluted DMSO stock solution of the compounds of this invention at concentrations ranging from 100 microM to 10 nM. The control received 2 microL of DMSO alone, then the antagonist [^3H] 8-cyclopentylxanthine (CPX) for pig striatum or the agonist [3H] 2-chloro-6-cyclopentyladenosine (CCPA) for DDT1 membranes in Tris buffer (50 mM, pH of 7.4) was added to achieve a final concentration of 2 nM. After bation at 23 C. for 2 h, then the solutions were filtered using a membrane harvester using iple washing of the membranes (3 x). The filter disks were counted in scintillation cocktail rding the amount of displacement of tritiated CPX or by the competitive binding ositions of this invention. Greater than a 5 point curve was used to generate Ki's and the er of experiments is indicated in the column marked in Table 1, below: […]

A further assay deals with T2, A1 AdoR (Mesocricetus auratus, UniProt A0A1U8BVR4).
T2 construct: endogenous in cells; host or cells: DDT1 (DDT) hamster vas deferens smooth muscle cells, membrane preparation
T2 sequence (A0A1U8BVR4 1-326): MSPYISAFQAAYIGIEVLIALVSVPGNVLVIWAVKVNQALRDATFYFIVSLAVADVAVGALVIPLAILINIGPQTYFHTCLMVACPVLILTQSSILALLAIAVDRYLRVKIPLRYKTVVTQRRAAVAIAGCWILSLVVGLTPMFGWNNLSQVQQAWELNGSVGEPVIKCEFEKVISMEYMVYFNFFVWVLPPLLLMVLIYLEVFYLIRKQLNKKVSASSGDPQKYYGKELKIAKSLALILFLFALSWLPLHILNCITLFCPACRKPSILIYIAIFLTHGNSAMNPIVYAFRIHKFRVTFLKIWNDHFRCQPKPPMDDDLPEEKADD
Briefly: A1-agonist stimulated [35S]GTPγS binding assay, DDT1 membranes. It is filed as biochemical, hamster. As to conditions: [35S]GTPγS binding normalized to the full agonist CPA. On the procedure: as §1
Attached cells were washed twice with HBSS (2×10 ml), scraped free of the plate with the aid of a rubber policeman in 5 ml of 50 mM Tris-HCl buffer pH 7.4 at 4° C. and the suspension homogenized for 10 s. The suspension was then centrifuged at 27,000 x g for 10 min. The pellet was resuspended in homogenization buffer by vortexing and centrifuged as described above. The final pellet was resuspended in 1 vol of 50 mM Tris-HCl buffer pH 7.4 containing 5 mM MgCl2 for A1 AdoR assays. For the [^35S]GTPγS binding assay the final pellet was resuspended in 50 mM Tris-HCl pH 7.4 containing 5 mM MgCl2, 100 mM NaCl and 1 mM dithiothreitol. This membrane suspension was then placed in liquid nitrogen for 10 min, thawed and used for assays. The protein content was determined with a Bradford™ Assay Kit using bovine serum albumin as standard.
A1-agonist stimulated [^35S] GTPγS binding was determined by a modification of the method described by Giersckik et al. (1991) and Lorenzen et al. (1993). […] Nonspecific binding was determined by the addition of 10 μM GTPγS. […] Previous reports have shown that agonist stimulated [^35S]GTPγS binding was dependent on the presence of GDP (Gierschik et al., 1991; Lorenzen et al., 1993; Traynor & Nahorski, 1995). […] In saturation experiments, 0.5 nM [^35S]GTPγS was incubated with 0.5-1000 nM GTPγS. At the end of the incubation, each suspension was filtered and the retained radioactivity determined as described above.
(Binding of GTPγS marks nucleotide exchange on a G protein.)

We go through 8 molecules from US20020045595A1, “N6 heterocyclic 8-modified adenosine derivatives” (priority 1999, published 2002).

Broadly, the Ki is the equilibrium dissociation constant of an inhibitor or competing ligand from its target.

Turning to `OC[C@H]1O[C@@H](n2cnc3c(NC4CCCC4)ncnc32)[C@H](O)[C@@H]1O` [CPA, N-6-cyclopentyladenosine, reference compound], in assay [1], the “forskolin induced cAMP generation” value is reported as “back to basal levels” and the cAMP is on record as 100%.
In turn, `CCNc1nc2c(N[C@@H]3CCOC3)ncnc2n1[C@@H]1O[C@H](CO)[C@@H](O)[C@H]1O` [Compound 5, 2-{6-[((3 R)oxolan-3-yl)amino]-8-(ethylamino)purin-9-yl}(4 S,2 R,3 R,5 R)-5-(hydroxymethyl)oxolane-3,4-diol] showed an inhibitory constant (Ki) at A1 receptor of 0.137 µM. On A1 AdoR, this molecule registered a GIPγS of 89%.
In turn, `CNc1nc2c(NC3CCOC3)ncnc2n1C1OC(CO)C(O)C1O` (stereo not drawn) [Compound 7] displayed a Ki on A1 receptor of 0.799 µM.
`CCCNc1nc2c(N[C@@H]3CCOC3)ncnc2n1[C@@H]1O[C@H](CO)[C@@H](O)[C@H]1O` [Compound 8, 2-{6-[((3 R)oxolan-3-yl)amino]-8-(propylamino)purin-9-yl}(4 S,2 R,3 R,5 R)-5-(hydroxymethyl)oxolane-3,4-diol] registered a Ki on A1 receptor of 1.04 µM.
On the same count and under the same terms, the figure for `CCCCNc1nc2c(N[C@@H]3CCOC3)ncnc2n1[C@@H]1O[C@H](CO)[C@@H](O)[C@H]1O` [Compound 9, 2-{6-[((3 R)oxolan-3-yl)amino]-8-(butylamino)purin-9-yl}(4S,2 R,3 R,5 R)-5-(hydroxymethyl)oxolane-3,4-diol] is 2.84 µM; for `OC[C@H]1O[C@@H](n2c(NCc3ccccc3)nc3c(N[C@@H]4CCOC4)ncnc32)[C@H](O)[C@@H]1O` [Compound 10, 2-{6-[((3 R)oxolan-3-yl)amino]-8-[benzylamino]purin-9-yl}(4 S,2 R,3 R,5 R)-5-(hydroxymethyl)oxolane-3,4-diol] it is 7.47 µM.
Molecule `CC(C)Nc1nc2c(N[C@@H]3CCOC3)ncnc2n1[C@@H]1O[C@H](CO)[C@@H](O)[C@H]1O` [Compound 11, 2-{6-[((3 R)oxolan-3-yl)amino]-8-[(methylethyl)amino]purin-9-yl}(4 S,2 R,3 R,5 R)-5-(hydroxymethyl)oxolane-3,4-diol] displayed a GIPγS on A1 AdoR of 68%. In assay [1], this molecule had a cAMP of 37%.
For `C=CCNc1nc2c(N[C@@H]3CCOC3)ncnc2n1[C@@H]1O[C@H](CO)[C@@H](O)[C@H]1O` [Compound 12, 2-{6-[((3 R)oxolan-3-yl)amino]-8-(prop-2-enylamino)purin-9-yl}(4 S,2 R,3 R,5 R)-5-(hydroxymethyl)oxolane-3,4-diol] the same measures were 77% and 42%.
